Experimental data: US11022604B2, “Dock derived compound against laminin receptor (37 LR) and uses thereof” (Purdue Research Foundation, priority 2017, dated 2021)

Test system: LNCaP androgen dependent metastatic prostate cancer cells
Test: Cell viability screen (CCK-8), LNCaP cells
Assay type: cell-based
Settings: Homo sapiens, CCK-8, 96 hours, read-out: IC50, inhibition of cell viability
Description: FIGS. 2A-2H. Dose response curves. Does response curves for cell lines treated with 6, 10.5, 18.6, 32.4, 57.5 and 100 μM of compound (log) for 96 hours using % cell viability derived from CCK-8 absorbance readings at 450 nm (n=3, mean±SEM). A DMSO equivalent control (n=2±SEM) was also included for each cell line tested: Ea.hy.926 endothelial cells (Endo), LNCaP androgen dependent metastatic prostate cancer cells, TC2-Ras mouse prostate cancer cells, PC-3 androgen independent metastatic prostate cancer cells, and SH-SY5Y neruoblastoma cells. […]
Cell Viability Screen. […] Cell viability was measured by using the cell counting kit-8 (CCK-8, Dojindo). […] CCK-8 absorbance was measured at 450 nm using a GloMax Multimode Reader (Promega). Readings were performed the day after seeding to normalize for variations in cell seeding and after 96 hours of compound treatment. After each reading, CCK-8 media was removed and replaced with media containing compound as described previously. […] As described previously, an initial baseline CCK-8 reading was performed at 24 hours post seeding to correct for variations in seeding density. First, 450 nm values for each well were subtracted from media only readings to correct for baseline absorbance. Then, the 96 hour readings were normalized to their respective 24 hour readings to control for seeding variation. […]

IC50: 10.3 µM
SMILES: O=C(c1cc(F)cc2c1OCOC2)N1CCN(C2c3ccccc3-c3ccccc32)CC1 [Compound C3, [4-(9h-fluoren-9-yl)piperazino](6-fluoro-4h-1,3-benzodioxin-8-yl)methanone]
